Assay results as given in ChEMBL document CHEMBL5360585, “Spectasterols, Aromatic Ergosterols with 6/6/6/5/5, 6/6/6/6, and 6/6/6/5 Ring Systems from Aspergillus spectabilis” (J Nat Prod, 2023).
Activity calls are given as the source filed them. The calls are words filed in the database; no cut-off is given here.

Tests used:
HL-60 [1] = test: Induction of apoptosis in human HL-60 cells assessed as late apoptotic cells at 7 uM incubated for 48 hrs by Annexin V-FITC/PI staining based flow cytometric analysis (reference value: 4.53%); format: functional
RAW264.7 [2] = test: Antiinflammatory activity in LPS-induced mouse RAW264.7 cells assessed as reduction in IL-1beta mRNA expression at 5 to 20 uM incubated for 24 hrs by qRT-PCR analysis; format: functional, cell-based; settings: dose 5-20 µM
HL-60 [3] = test: Induction of apoptosis in human HL-60 cells assessed as late apoptotic cells at 14 uM incubated for 48 hrs by Annexin V-FITC/PI staining based flow cytometric analysis (reference value: 4.53%); format: functional
SU-DHL-2 = test: Cytotoxicity against human SUDHL2 cells assessed as inhibition of cell growth incubated for 48 hrs by CCK8 assay; format: functional, cell-based; settings: SU-DHL-2, 48 h
HL-60 [4] = test: Induction of cell cycle arrest in human HL-60 cells assessed as S phase cells at 7 uM incubated for 48 hrs (reference value: 32.3%); format: functional
HL-60 [5] = test: Induction of apoptosis in human HL-60 cells assessed as early apoptotic cells at 14 uM incubated for 48 hrs by Annexin V-FITC/PI staining based flow cytometric analysis (reference value: 11.0%); format: functional
RAW264.7 [6] = test: Antiinflammatory activity in LPS-induced mouse RAW264.7 cells assessed as reduction in iNOS mRNA expression at 5 to 20 uM incubated for 24 hrs by qRT-PCR analysis; format: functional, cell-based; settings: dose 5-20 µM
HL-60 [7] = test: Induction of apoptosis in human HL-60 cells assessed as necrotic cells at 7 uM incubated for 48 hrs by Annexin V-FITC/PI staining based flow cytometric analysis (reference value: 0.39%); format: functional
HL-60 [8] = test: Induction of cell cycle arrest in human HL-60 cells assessed as G2 phase cells at 7 uM incubated for 48 hrs (reference value: 23.7%); format: functional
HL-60 [9] = test: Induction of cell cycle arrest in human HL-60 cells assessed as S phase cells at 14 uM incubated for 48 hrs (reference value: 32.3%); format: functional
RAW264.7 [10] = test: Antiinflammatory activity in LPS-induced mouse RAW264.7 cells assessed as reduction in COX-2 protein expression by Western blot analysis; format: functional, cell-based; settings: dose 5-20 µM
HL-60 [11] = test: Induction of apoptosis in human HL-60 cells assessed as viable cells at 7 uM incubated for 48 hrs by Annexin V-FITC/PI staining based flow cytometric analysis (reference value: 84.1%); format: functional; settings: read-out: Activity
HL-60 [12] = test: Induction of apoptosis in human HL-60 cells assessed as necrotic cells at 14 uM incubated for 48 hrs by Annexin V-FITC/PI staining based flow cytometric analysis (reference value: 0.39%); format: functional
HL-60 [13] = test: Induction of cell cycle arrest in human HL-60 cells assessed as accumulation of G1 phase cells at 14 uM incubated for 48 hrs (reference value: 42.0%); format: functional
HL-60 [14] = test: Induction of apoptosis in human HL-60 cells assessed as viable cells at 14 uM incubated for 48 hrs by Annexin V-FITC/PI staining based flow cytometric analysis (reference value: 84.1%); format: functional; settings: read-out: Activity
HL-60 [15] = test: Induction of cell cycle arrest in human HL-60 cells assessed as G2 phase cells at 14 uM incubated for 48 hrs (reference value: 23.7%); format: functional
HL-60 [16] = test: Induction of cell cycle arrest in human HL-60 cells assessed as accumulation of G1 phase cells at 7 uM incubated for 48 hrs (reference value: 42.0%); format: functional
HL-60 [17] = test: Induction of apoptosis in human HL-60 cells assessed as early apoptotic cells at 7 uM incubated for 48 hrs by Annexin V-FITC/PI staining based flow cytometric analysis (reference value: 11.0%); format: functional
RAW264.7 [18] = test: Antiinflammatory activity in LPS-induced mouse RAW264.7 cells assessed as reduction in COX2 mRNA expression at 5 to 20 uM incubated for 24 hrs by qRT-PCR analysis; format: functional, cell-based; settings: dose 5-20 µM
RAW264.7 [19] = test: Antiinflammatory activity in mouse RAW264.7 cells assessed as inhibition of LPS-induced NO production preincubated with compound for 1 hrs followed by LPS stimulation and measured after 24 hrs by Griess reagent based method; format: functional, cell-based
HL-60 [20] = test: Cytotoxicity against human HL-60 cells assessed as inhibition of cell growth incubated for 48 hrs by CCK8 assay; format: functional, cell-based; settings: HL-60, 48 h
RAW264.7 [21] = test: Antiinflammatory activity in mouse RAW264.7 cells assessed as inhibition of LPS-induced nuclear translocation of NF-kappaB p65 preincubated with compound for 1 hrs followed by LPS stimulation and measured after 24 hrs by DAPI staining based immunofluorescence analysis; format: functional, cell-based; settings: dose 5-20 µM, time 25.0 hrs

**Q.** `Cc1cc2c(c3c1C[C@@H](O)CC3)CC[C@@]1(C)[C@H]2CCC(=O)[C@@]1(C)/C=C/[C@H](C)C(C)C` was tested. Which Activity (HL-60 [1]) did it give?
**A.** Its Activity is 11%.

**Q.** And the Activity (RAW264.7 [2])?
**A.** Its Activity is “Active”.

**Q.** And the Activity (HL-60 [3])?
**A.** The Activity was 53.8%.

**Q.** What about the IC50 (SU-DHL-2) of the same compound?
**A.** The IC50 was 6.9 µM.

**Q.** And the Activity (HL-60 [4])?
**A.** The Activity was 24.7%.

**Q.** And the Activity (HL-60 [5])?
**A.** The Activity was 21.9%.

**Q.** And the Activity (RAW264.7 [6])?
**A.** The Activity was “Active”.

**Q.** What about the Activity (HL-60 [7]) of the same compound?
**A.** The Activity was 0.57%.

**Q.** What about the Activity (HL-60 [8]) of the same compound?
**A.** The Activity was 16.1%.

**Q.** And the Activity (HL-60 [9])?
**A.** Its Activity is 24.9%.

**Q.** What about the Activity (RAW264.7 [10]) of the same compound?
**A.** The Activity was “Dose-Dependent Effect”.

**Q.** And the viability at 7 µM (HL-60 [11])?
**A.** The viability at 7 µM was 76.3%.

**Q.** And the Activity (HL-60 [12])?
**A.** The Activity was 2.95%.

**Q.** What about the Activity (HL-60 [13]) of the same compound?
**A.** Its Activity is 62.3%.

**Q.** And the viability at 14 µM (HL-60 [14])?
**A.** The viability at 14 µM was 21.3%.

**Q.** What about the Activity (HL-60 [15]) of the same compound?
**A.** Its Activity is 9.7%.

**Q.** And the Activity (HL-60 [16])?
**A.** Its Activity is 53.9%.

**Q.** What about the Activity (HL-60 [17]) of the same compound?
**A.** The Activity was 12.1%.

**Q.** And the Activity (RAW264.7 [18])?
**A.** Its Activity is “Active”.

**Q.** And the IC50 (RAW264.7 [19])?
**A.** The IC50 was 19.3 µM.

**Q.** What about the IC50 (HL-60 [20]) of the same compound?
**A.** The IC50 was 8.7 µM.

**Q.** What about the Activity (RAW264.7 [21]) of the same compound?
**A.** The Activity was “Dose-Dependent Effect”.
